For one assay, the system named is AECO001 (ATCC25922). In words: MIC broth microdilution, AECO001. The format is cell-based, E. coli. As to conditions: Escherichia coli. The procedure, abridged:
(§1)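 Inocula prepared from 0.5 McFarland suspensions (final 3×10^5–7×10^5 CFU/mL) were added to 2-fold drug dilution series in cation-adjusted Mueller-Hinton broth. Plates stood 18-24 hours at 35° C. under ambient air.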
(In general: Broth dilution looks for growth in wells or tubes with falling amounts of substance.)

Assay [1] relates to ASAU001 (laboratory strain of S. aureus, ATCC29213). Description: MIC broth microdilution, ASAU001. The format is cell-based. To be noted: Staphylococcus aureus, ATCC29213, read-out: MIC ASAU001. The method, boiled down: as §1
Assay [2] relates to AABA1060 (clinical isolate of Acinetobacter baumannii). Description: MIC broth microdilution, AABA1060. The format is cell-based. As to conditions: Acinetobacter baumannii, read-out: MIC AABA1060. The procedure, abridged: as §1
Assay [3] concerns AECO063 (ATCC25922 bearing an acrAB mutation). Description: microbe, parasite or virus in culture. The format is cell-based, E. coli. To be noted: Escherichia coli, ATCC25922, read-out: MIC AECO063. The procedure, abridged: as §1
For assay [4], the system named is APAE006 in the presence of 8 micrograms per milliliter of polymyxin B nonapeptide. In kind it is cell-based, P. aeruginosa. To be noted: APAE006 with 8 micrograms per milliliter polymyxin B nonapeptide. The method, boiled down:
(§2)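 Growth inhibition was scored by CLSI broth microdilution using cation-adjusted Mueller-Hinton broth and a final inoculum between 3×10^5 and 7×10^5 CFU/mL, incubated 18-24 hours at 35° C.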

A further assay deals with APAE001 (ATCC27853). In words: MIC broth microdilution, APAE001. In kind it is cell-based, P. aeruginosa. To be noted: Pseudomonas aeruginosa, ATCC27853, read-out: MIC APAE001, APAE001 (ATCC27853). The method, boiled down:
as §1

Assay [5] relates to APAE006 (strain of P. aeruginosa in which all efflux pumps are inactivated). Description: microbe, parasite or virus in culture. The format is cell-based. To be noted: Pseudomonas aeruginosa, read-out: MIC APAE006, APAE006, all efflux pumps inactivated. The method, boiled down:
as §2

The mark [6] stands for this setting: ATCC25922, read-out: MIC AECO001.
[7] abbreviates: ATCC25922, read-out: MIC AECO001 HSA AGP.

In brackets after ≈: the same amount, converted by molar mass. Read-outs that look alike come from different tables or passages of the source.

We go through nine compounds from patent US9617256B2 (priority 2007, dated 2017).

With `O=C(NC(C(=O)NO)C1(O)CC1)c1ccc(C#CC#CC2CC2)cc1` (stereo not drawn) [Example 94-1, 4-(cyclopropylbuta-1,3-diynyl)-N-(2-(hydroxyamino)-1-(1-hydroxycyclopropyl)-2-oxoethyl)benzamide], the MIC in the assay with AECO001 (ATCC25922) (setting [6]) is under 2 µg/mL; with AECO001 (ATCC25922) (setting [7]) it was 2 to 16 µg/mL (≈ 5.91 to 47.3 µM); in assay [1], 16 to 64 µg/mL (≈ 47.3 to 189 µM); in assay [2], 2 to 16 µg/mL (≈ 5.91 to 47.3 µM); in assay [3] it was under 2 µg/mL; in the assay with APAE001 (ATCC27853), under 2 µg/mL. In addition, the MIC in assay [5] was under 2 µg/mL. Also, the “MIC APAE006 + PMBN” value in assay [4] is listed as “A (MIC's of 2.0 μg/mL or less = A)”.

On to `CC(C)(N)[C@H](NC(=O)c1ccc(C#C/C=C/c2ccc(CNC3CC3)cc2)cc1)C(=O)NO` [Example 102-6], for which the MIC is under 2 µg/mL in the assay on AECO001 (ATCC25922) (setting [6]); 2 to 16 µg/mL (≈ 4.48 to 35.8 µM) in the assay with AECO001 (ATCC25922) (setting [7]); 16 to 64 µg/mL (≈ 35.8 to 143 µM) in assay [1]; 2 to 16 µg/mL (≈ 4.48 to 35.8 µM) in assay [2]; under 2 µg/mL in assay [3]; under 2 µg/mL with APAE001 (ATCC27853). Moreover, the MIC in assay [5] is under 2 µg/mL. The “MIC APAE006 + PMBN” value in assay [4] is “A (MIC's of 2.0 μg/mL or less = A)”.

As for `CC(C)(N)[C@H](NC(=O)c1ccc(C#C/C=C/c2ccccc2)cc1)C(=O)NO` [Example 104-5], the MIC was under 2 µg/mL with AECO001 (ATCC25922) (setting [6]); under 2 µg/mL in the assay on AECO001 (ATCC25922) (setting [7]); 2 to 16 µg/mL (≈ 5.3 to 42.4 µM) in assay [1]; under 2 µg/mL in assay [2]; under 2 µg/mL in assay [3]; 2 to 16 µg/mL (≈ 5.3 to 42.4 µM) in the assay on APAE001 (ATCC27853). In assay [5], the MIC was under 2 µg/mL. In assay [4], the “MIC APAE006 + PMBN” value was “A (MIC's of 2.0 μg/mL or less = A)”.

For `C[C@@H](O)[C@H](NC(=O)c1ccc(C#C/C=C/c2ccncc2)cc1)C(=O)NO` [Example 106-1, N-((1S,2R)-2-Hydroxy-1-hydroxycarbamoyl-propyl)-4-((E)-4-pyridin-4-yl-but-3-en-1-ynyl)-benzamide], the MIC is under 2 µg/mL in the assay with AECO001 (ATCC25922) (setting [6]); 2 to 16 µg/mL (≈ 5.47 to 43.8 µM) in the assay with AECO001 (ATCC25922) (setting [7]); 16 to 64 µg/mL (≈ 43.8 to 175 µM) in assay [1]; 16 to 64 µg/mL (≈ 43.8 to 175 µM) in assay [2]; under 2 µg/mL in assay [3]; 16 to 64 µg/mL (≈ 43.8 to 175 µM) with APAE001 (ATCC27853). Besides, the MIC in assay [5] is under 2 µg/mL. In addition, the “MIC APAE006 + PMBN” value in assay [4] was “A (MIC's of 2.0 μg/mL or less = A)”.

Consider `CC(C)(O)[C@H](NC(=O)c1ccc(C#C/C=C/c2ccncc2)cc1)C(=O)NO` [Example 106-2], for which the MIC in the assay on AECO001 (ATCC25922) (setting [6]) was under 2 µg/mL; in the assay on AECO001 (ATCC25922) (setting [7]), 2 to 16 µg/mL (≈ 5.27 to 42.2 µM); in assay [1] it was 16 to 64 µg/mL (≈ 42.2 to 169 µM); in assay [2] it was 2 to 16 µg/mL (≈ 5.27 to 42.2 µM); in assay [3] it was under 2 µg/mL; with APAE001 (ATCC27853), 2 to 16 µg/mL (≈ 5.27 to 42.2 µM). Besides, the MIC in assay [5] was under 2 µg/mL. The “MIC APAE006 + PMBN” value in assay [4] is recorded as “A (MIC's of 2.0 μg/mL or less = A)”.

Turning to `C[C@@H](N)[C@H](NC(=O)c1ccc(C#C/C=C/c2ccncc2)cc1)C(=O)NO` [Example 106-3], the MIC with AECO001 (ATCC25922) (setting [6]) is under 2 µg/mL; with AECO001 (ATCC25922) (setting [7]), 16 to 64 µg/mL (≈ 43.9 to 176 µM); in assay [1] it was 16 to 64 µg/mL (≈ 43.9 to 176 µM); in assay [2], 16 to 64 µg/mL (≈ 43.9 to 176 µM); in assay [3] it was under 2 µg/mL; with APAE001 (ATCC27853), under 2 µg/mL. Also, the MIC in assay [5] was under 2 µg/mL. For the same compound, the “MIC APAE006 + PMBN” value in assay [4] is “A (MIC's of 2.0 μg/mL or less = A)”.

As for `C[C@@H](N)[C@H](NC(=O)c1ccc(C#C/C=C/c2cccnc2)cc1)C(=O)NO` [Example 106-4], the MIC is 2 to 16 µg/mL (≈ 5.49 to 43.9 µM) in the assay with AECO001 (ATCC25922) (setting [6]); 16 to 64 µg/mL (≈ 43.9 to 176 µM) in the assay on AECO001 (ATCC25922) (setting [7]); 16 to 64 µg/mL (≈ 43.9 to 176 µM) in assay [1]; 16 to 64 µg/mL (≈ 43.9 to 176 µM) in assay [2]; under 2 µg/mL in assay [3]; 2 to 16 µg/mL (≈ 5.49 to 43.9 µM) in the assay on APAE001 (ATCC27853). For the same compound, the MIC in assay [5] is under 2 µg/mL. Moreover, the “MIC APAE006 + PMBN” value in assay [4] was “A (MIC's of 2.0 μg/mL or less = A)”.

For `CC(C)(O)[C@H](NC(=O)c1ccc(C#C/C=C/c2cccnc2)cc1)C(=O)NO` [Example 106-5], the MIC is under 2 µg/mL in the assay with AECO001 (ATCC25922) (setting [6]); 2 to 16 µg/mL (≈ 5.27 to 42.2 µM) with AECO001 (ATCC25922) (setting [7]); 16 to 64 µg/mL (≈ 42.2 to 169 µM) in assay [1]; 2 to 16 µg/mL (≈ 5.27 to 42.2 µM) in assay [2]; under 2 µg/mL in assay [3]; 2 to 16 µg/mL (≈ 5.27 to 42.2 µM) with APAE001 (ATCC27853). In addition, the MIC in assay [5] was under 2 µg/mL. For the same compound, in assay [4], the “MIC APAE006 + PMBN” value is recorded as “A (MIC's of 2.0 μg/mL or less = A)”.

On to `C[C@@H](N)[C@H](NC(=O)c1ccc(C#C/C=C/c2ccc(F)cc2)cc1)C(=O)NO` [Example 106-6], for which the MIC was under 2 µg/mL in the assay with AECO001 (ATCC25922) (setting [6]); 16 to 64 µg/mL (≈ 41.9 to 168 µM) with AECO001 (ATCC25922) (setting [7]); 16 to 64 µg/mL (≈ 41.9 to 168 µM) in assay [1]; 2 to 16 µg/mL (≈ 5.24 to 41.9 µM) in assay [2]; under 2 µg/mL in assay [3]; 2 to 16 µg/mL (≈ 5.24 to 41.9 µM) with APAE001 (ATCC27853). In assay [5], the MIC is under 2 µg/mL. Further, the “MIC APAE006 + PMBN” value in assay [4] is recorded as “A (MIC's of 2.0 μg/mL or less = A)”.
